In PMC11219860, “A chemogenetic approach for dopamine imaging with tunable sensitivity” (Nature Communications, 2024):

What was measured:
hM4Di in VTA DA neurons = target: T1, hM4Di in VTA DA neurons (Homo sapiens, UniProt P08173, A203G/Y113C); test: Chemogenetic inhibition of VTA DA neurons with NAc dLight1.3b photometry; type: in vivo, mouse; details: J60 0.2 or 1 mg/kg, 10 minutes after DETQ
T1 construct: mCherry; expressed in transfected cells; host or cells: VTA dopamine neurons of DAT-IRES-cre mice, Cre-dependent AAV5
T1 sequence (P08173 whole entry Y113C/A203G): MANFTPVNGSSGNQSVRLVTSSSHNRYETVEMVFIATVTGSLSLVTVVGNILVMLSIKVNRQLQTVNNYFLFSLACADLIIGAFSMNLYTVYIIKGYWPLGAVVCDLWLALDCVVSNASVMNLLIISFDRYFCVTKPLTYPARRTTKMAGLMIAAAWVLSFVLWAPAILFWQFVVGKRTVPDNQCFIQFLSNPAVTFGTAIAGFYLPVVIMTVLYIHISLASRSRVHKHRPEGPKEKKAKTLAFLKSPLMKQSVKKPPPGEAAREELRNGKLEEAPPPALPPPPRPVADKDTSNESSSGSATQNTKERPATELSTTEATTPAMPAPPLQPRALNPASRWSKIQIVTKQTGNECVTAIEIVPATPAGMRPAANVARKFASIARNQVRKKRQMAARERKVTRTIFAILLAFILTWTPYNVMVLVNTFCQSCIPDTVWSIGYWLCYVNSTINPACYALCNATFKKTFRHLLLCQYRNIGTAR
Description: Fiber photometry combined with optogenetics was conducted using a RZ10X LUX-I/O Processor with integrated LEDs (Tucker-Davis Technologies) combined with a filter/mirror minicube set (FMC6_IE(400-410)_E1(467-497)_F1(507-554)_E2(566-586)_F2(600-680)_S) (Doric Lenses). […] Low-autofluorescence patch cords (400 µm/0.57 NA, Doric) were attached to the optic fibers (400 µm/0.66 NA, Doric) on the mouse’s head to collect fluorescence emissions. Signals were filtered through 500–540 nm GFP emission filters coupled to a photodetector on the RZ10X. […] Data were sampled at 1017.3 Hz. […] DA release was measured with fiber photometry. […] After each injection, NAc DA axons were optically (opto) activated across 3 trials (2 s, 20 Hz, 20-ms pulses) every 5 min and DA released measured with fiber photometry. […] After each injection, NAc DA axons were optically (opto) inhibited (10 s, continuous trials) every 3 min (8 trials/condition) and DA released measured with fiber photometry. […] DA release was measured with fiber photometry.
For long-term recordings during optogenetic stimulation or chemogenetic inhibition linear fit was calculated across the entire recording or across the vehicle epoch; for event-related experiments fit was performed on fluorescent data obtained in the −60 to +60 s around opto events or −5 to −1 s around behavioral events. […]

[1] = ref Svensson et al 2019; Meltzer et al., 2019; Rajagopal et al., 2024; cited from earlier work
NAc DRD1-MSNs = test: Footshock-induced NAc DRD1-MSN activity (jGCaMP8m photometry); details: DETQ 10 mg/kg; SCH-23390 0.1 mg/kg i.p.
Description: Cue-reward paradigm (NAc recordings) was carried out in an operant chamber within a sound-attenuating box with low red light illumination (30 Lux). […] During the next session mice were trained to initiate reward delivery via licking. […] During expert sessions CS-US pairings were repeated 20 times per session ( ~ 30 min for each session). Mice underwent a total of 12 sessions for cue-reward learning. 10 minutes before each session drugs were injected i.p. […] The rewards were delivered from 10 to 40 min post vehicle or DETQ injection. Chambers and lick ports were sanitized with ethanol between mice. For all sessions, lick data and photometry recordings were simultaneously obtained; licking behaviour was detected by a capacity-based sensor. Latency to reward-anticipatory licking was calculated as the time between the CS and lick onset. The lick proportion was calculated as the percent time mice spent licking during CS presentation divided by the percent time mice spent licking during the rest of the session (without CS). […] Fiber photometry recordings were analyzed using custom-written Matlab scripts. […] Change in fluorescence, ΔF/F0 (%), was defined as (F-F0)/F0 x 100, where F represents the fluorescent signal (465-nm) at each time point. F0 was calculated by applying a least-squares linear fit (polyfit) to the 405-nm signal to align with the 465-nm signal. […]

[2] = target: T2, mouse DA transporter (DAT) (Mus musculus, UniProt Q61327); test: Fast-scan cyclic voltammetry of DA release in striatal slices; details: bath application: DETQ 200 nM; cocaine 5 µM
T2 construct: Lack of DETQ effect on the endogenous DA transporter; from tissue; host or cells: mouse striatal brain slices
T2 sequence (Q61327 whole entry): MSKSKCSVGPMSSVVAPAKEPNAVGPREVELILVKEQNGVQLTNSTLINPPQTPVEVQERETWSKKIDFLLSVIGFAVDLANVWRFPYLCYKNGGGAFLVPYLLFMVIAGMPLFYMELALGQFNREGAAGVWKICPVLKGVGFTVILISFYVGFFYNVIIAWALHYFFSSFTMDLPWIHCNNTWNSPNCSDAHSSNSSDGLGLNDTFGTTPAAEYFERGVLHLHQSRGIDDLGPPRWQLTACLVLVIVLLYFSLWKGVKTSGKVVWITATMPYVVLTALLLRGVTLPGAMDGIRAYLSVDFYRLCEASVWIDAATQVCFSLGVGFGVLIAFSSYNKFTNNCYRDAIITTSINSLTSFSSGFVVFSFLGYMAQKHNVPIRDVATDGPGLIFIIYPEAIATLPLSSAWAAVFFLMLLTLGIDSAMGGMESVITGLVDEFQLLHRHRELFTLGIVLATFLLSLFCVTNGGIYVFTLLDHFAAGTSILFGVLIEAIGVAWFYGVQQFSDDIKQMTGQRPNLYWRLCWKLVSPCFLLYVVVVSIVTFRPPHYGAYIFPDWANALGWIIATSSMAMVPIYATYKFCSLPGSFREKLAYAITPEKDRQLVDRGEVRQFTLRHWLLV
Description: Striatal DA release was measured using fast-scan cyclic voltammetry (FSCV) with a carbon fiber electrode (CFE; diameter 7 µm, length 50–100 µm) positioned approximately 100 µm below the surface of the slice. The CFE was scanned across a triangular waveform (−0.4 to +1.3 V, 400 V/s) at 10 Hz, and DA release was evoked by single-pulse electrical stimulation (30 µA, 0.5 ms) with an inter-stimulus interval of 180 s. DA release was evoked in the presence of DHBE (1 µM) to block nicotinic acetylcholine receptors. Peak background-subtracted DA oxidation current was measured at +0.6 V, and drugs were washed on after establishing a stable baseline.

dLight1.3b = test: In vivo photometry of optogenetically-evoked DA release in PFC; parameters: species or system mouse; details: cocaine 20 mg/kg after DETQ 10 mg/kg
Description: (§1) Fiber photometry combined with optogenetics was conducted using a RZ10X LUX-I/O Processor with integrated LEDs (Tucker-Davis Technologies) combined with a filter/mirror minicube set (FMC6_IE(400-410)_E1(467-497)_F1(507-554)_E2(566-586)_F2(600-680)_S) (Doric Lenses). […] Low-autofluorescence patch cords (400 µm/0.57 NA, Doric) were attached to the optic fibers (400 µm/0.66 NA, Doric) on the mouse’s head to collect fluorescence emissions. Signals were filtered through 500–540 nm GFP emission filters coupled to a photodetector on the RZ10X. […] Data were sampled at 1017.3 Hz. […] For optogenetic stimulation, a 635 nm LED was passed through the 580–680 nm minicube F2 port and reached the mouse through the same unique optic fiber; the LED was driven at 1 to 3 mW. To determine the ‘temporal window for stable imaging’ in the PFC using dLight1.3b recordings, DAT^IREScre mice expressing ChrimsonR in VTA DA axons and dLight1.3b in the PFC were injected i.p. with vehicle at 0 min, followed by DETQ (10 mg/kg) 25 min later. After each injection, PFC DA axons were optically (opto) activated across 5 trials (2 s, 20 Hz, 20-ms pulses) for the vehicle (20 min) and 19 trials for DETQ (1h05 min) every 5 min. DA release was measured with fiber photometry. In another session, the same mice were injected with Veh, then DETQ (10 mg/kg) 20 min later, then cocaine (20 mg/kg) 25 min later, and the same optogenetic protocol was applied (2 s, 20 Hz, 20-ms pulses every 5 min). For optogenetic validation of AlloLite-ctr in the NAc, DAT^IREScre mice expressing ChrimsonR in VTA DA axons were injected i.p. with vehicle (Day 1) or DETQ (10 mg/kg) (Day 8) at 0 min, followed by cocaine (20 mg/kg) 20 min later. After each injection, NAc DA axons were optically (opto) activated across 3 trials (2 s, 20 Hz, 20-ms pulses) every 5 min and DA released measured with fiber photometry. […] After each injection, NAc DA axons were optically (opto) inhibited (10 s, continuous trials) every 3 min (8 trials/condition) and DA released measured with fiber photometry. […] DA release was measured with fiber photometry.
For long-term recordings during optogenetic stimulation or chemogenetic inhibition linear fit was calculated across the entire recording or across the vehicle epoch; for event-related experiments fit was performed on fluorescent data obtained in the −60 to +60 s around opto events or −5 to −1 s around behavioral events. […] DA event-related responses were quantified by computing the value at the transient’s peak value and the AUC in the 0 to 10 s or 0 to 60 s period post-event onset. […] The maximal peak value of Veh-normalized ΔF/F0 after opto-onset was plotted over time and the plateau of maximal response was determined by averaging peak opto responses 5, 10, 15 and 20 min post-DETQ. […]

Open field behavior = type: in vivo, mouse; details: untethered mice, 45 min; DETQ 3, 10, 30 mg/kg i.p.; cocaine 20 mg/kg
Description: For combined locomotion/photometry experiments in the open field (OF) in tethered mice, a 50 × 50 cm arena was used. Fiber photometry was conducted using a Doric photometry rig combined with a filter/mirror minicube set (Doric Lenses), as above. […] Data were sampled at 122 Hz. […] Mice were habituated to the chamber for 3 consecutive days (30 minutes per day). On experimental days, locomotor activity was video recorded and synchronized with fiber photometry signal recording. The baseline DA signal was recorded for 20 minutes, then the mouse received i.p. injection of vehicle or DETQ (10 mg/kg) in interleaved sessions. Following injection, the DA signal was recorded for an additional 90 minutes. The OF chamber was cleaned with ethanol and water between mice. Recording sessions were repeated at 48 hours intervals. Mouse behavior as well as photometry signals were analyzed with a custom-written MATLAB script. Mouse locomotion was computed using the body center point of the animal. The center zone of the arena was defined automatically during behavior data analysis as the 25 × 25 cm square with the central point aligned to the center of the open field. The distance moved and time spent in the center zone were quantified in 10 minutes time bins and as the total during the 90 minutes after ip injections. To test the dose-dependent effects of DETQ on locomotion in untethered mice, mice were injected i.p. with vehicle, DETQ (3, 10 or 30 mg/kg) or cocaine (20 mg/kg) while their locomotor activity was recorded in an OF arena (60 x 60 cm) for 45 min. Videos were recorded with a Logitech C270 camera and analyzed with DeepLabCut (version 2.1.8.2)[84] on an existing open field network. Representative traces were generated with the Anymaze (v7.2) software (Stoelting Co.).

AlloLite-ctr = test: In vivo photometry of AlloLite-ctr in NAc; parameters: species or system mouse; details: cocaine 20 mg/kg
Description: as §1, with “After each injection, PFC DA axons were optically (opto) activated across 5 trials (2 s, 20 Hz, 20-ms pulses) for the vehicle (20 min) and 19 trials for DETQ (1h05 min) every 5 min.” left out, “In another session, the same mice were injected with Veh, then DETQ (10 mg/kg) 20 min later, then cocaine (20 mg/kg) 25 min later, and the same optogenetic protocol was applied (2 s, 20 Hz, 20-ms pulses every 5 min). For optogenetic validation of AlloLite-ctr in the NAc, DAT^IREScre mice expressing ChrimsonR in VTA DA axons were injected i.p. with vehicle (Day 1) or DETQ (10 mg/kg) (Day 8) at 0 min, followed by cocaine (20 mg/kg) 20 min later.” left out
For long-term recordings during optogenetic stimulation or chemogenetic inhibition linear fit was calculated across the entire recording or across the vehicle epoch; for event-related experiments fit was performed on fluorescent data obtained in the −60 to +60 s around opto events or −5 to −1 s around behavioral events. […] DA event-related responses were quantified by computing the value at the transient’s peak value and the AUC in the 0 to 10 s or 0 to 60 s period post-event onset. […]

CCN1CCN(C2=Nc3cc(Cl)ccc3Nc3c(F)cccc32)CC1 [J60]
step-like increase in dLight1.3b baseline signal observed with DETQ (hM4Di in VTA DA neurons): dose-dependently decreased

CN1CCc2cc(Cl)c(O)cc2[C@@H](c2ccccc2)C1 [SCH-23390]
behavioral effect of DETQ in hD1 mice [1]: blocked | footshock-induced activity in NAc DRD1-MSNs (NAc DRD1-MSNs): reduces

COC(=O)[C@H]1[C@@H](OC(=O)c2ccccc2)C[C@@H]2CC[C@H]1N2C [cocaine]
decay constant (tau) of DA signals [2]: slowed the decay | peak DA release [2]: significantly increased | baseline fluorescence of the sensor after DETQ (dLight1.3b): further boosted | locomotion in open field (Open field behavior): increase | decay time of opto-evoked DA peaks (AlloLite-ctr): increased decay time
